Experimental data as given in paper PMC8699473, “An Easily Expandable Multi-Drug LC-MS Assay for the Simultaneous Quantification of 57 Oral Antitumor Drugs in Human Plasma” (Cancers, 2021).
Where two headings read alike, the source gives them in different places.

Key:
[1] = Autosampler stability of ready for injection samples; format: physicochemical, human
[2] = parameters: method as in supplement references [1-55] as printed per drug; settings: minimum steady-state blood plasma concentration after multiple dose administration; ref supplement references [1-55] per drug; cited from earlier work

| SMILES | Autosampler (72h, 4°C) Accuracy [%] ([1]; validation standard 2xLLOV) | Autosampler (24h, 4°C) Accuracy [%] ([1]; validation standard LLOV) | Autosampler (72h, 4°C) Accuracy [%] ([1]; validation standard LLOV) | Autosampler (24h, 4°C) Accuracy [%] ([1]; validation standard MOV) | Autosampler (72h, 4°C) Accuracy [%] ([1]; validation standard MOV) | Autosampler (24h, 4°C) Accuracy [%] ([1]; validation standard ULOV) | cmin [2] [ng/mL] | Autosampler (24h, 4°C) Accuracy [%] ([1]; validation standard 2xLLOV) | Autosampler (72h, 4°C) Accuracy [%] ([1]; validation standard ULOV) | Autosampler (24h, 4°C) Accuracy [%] [1] [%] | Autosampler (72h, 4°C) Accuracy [%] [1] [%] |
| --- | --- | --- | --- | --- | --- | --- | --- | --- | --- | --- | --- |
| COc1cc2nccc(Oc3ccc(NC(=O)C4(C(=O)Nc5ccc(F)cc5)CC4)cc3)c2cc1OC [Cabozantinib] | 103.4 | 92.0 | 94.0 | 105.6 | 103.5 | 98.7 | 1380 |  |  |  |  |
| Cc1cc(Nc2ncc(Cl)c(Nc3ccccc3S(=O)(=O)C(C)C)n2)c(OC(C)C)cc1C1CCNCC1 [Ceritinib] | 100.1 | 97.1 | 98.1 | 100.8 | 103.5 | 101.3 | 871 | 95.1 | 106.5 |  |  |
| O=C(c1ccc(F)c(F)c1Nc1ccc(I)cc1F)N1CC(O)([C@@H]2CCCCN2)C1 [Cobimetinib] | 100.8 | 94.6 | 93.0 | 105.2 | 103.1 | 102.5 | 127 | 100.3 | 107.2 |  |  |
| C[C@@H](Oc1cc(-c2cnn(C3CCNCC3)c2)cnc1N)c1c(Cl)ccc(F)c1Cl [Crizotinib] | 103.5 | 88.1 | 86.1 | 108.4 | 103.8 | 96.5 | 274 | 105.2 | 94.7 |  |  |
| Cc1nc(Nc2ncc(C(=O)Nc3c(C)cccc3Cl)s2)cc(N2CCN(CCO)CC2)n1 [Dasatinib] | 106.3 | 116.5 | 114.9 | 102.8 | 99.0 | 102.6 | 2.61 | 102.9 | 101.0 |  |  |
| CNC(=O)c1ccc(N2C(=S)N(c3ccc(C#N)c(C(F)(F)F)c3)C(=O)C2(C)C)cc1F [Enzalutamide] | 102.2 | 89.9 | 91.3 | 108.0 | 105.7 | 101.7 | 11400 | 100.5 | 103.3 |  |  |
| C#Cc1cccc(Nc2ncnc3cc(OCCOC)c(OCCOC)cc23)c1 [Erlotinib] | 98.1 |  | 103.9 | 103.3 | 98.3 | 103.4 | 1011 | 102.3 | 102.9 |  |  |
| COc1cc2ncnc(Nc3ccc(F)c(Cl)c3)c2cc1OCCCN1CCOCC1 [Gefitinib] | 98.5 | 91.6 | 90.7 | 105.6 | 102.2 | 96.7 | 291 | 102.3 | 97.0 |  |  |
| CS(=O)(=O)CCNCc1ccc(-c2ccc3ncnc(Nc4ccc(OCc5cccc(F)c5)c(Cl)c4)c3c2)o1 [Lapatinib] | 102.1 | 92.7 | 94.4 | 103.2 | 101.5 | 99.7 | 780 | 99.4 | 98.8 |  |  |
| O=C(Nc1cnn2ccc(N3CCC[C@@H]3c3cc(F)ccc3F)nc12)N1CC[C@H](O)C1 [Larotrectinib] | 100.3 | 79.4 | 75.5 | 104.6 | 101.2 | 102.3 | 5.14 | 87.6 | 104.4 |  |  |
| Nc1cccc2c1CN(C1CCC(=O)NC1=O)C2=O (centres unmarked) [Lenalidomide] | 109.8 | 80.7 | 95.6 | 107.0 | 100.0 | 100.8 | 13 | 117.5 | 98.9 |  |  |
| C[C@H]1Oc2cc(cnc2N)-c2c(nn(C)c2C#N)CN(C)C(=O)c2ccc(F)cc21 [Lorlatinib] | 99.0 | 96.7 | 94.8 | 102.0 | 100.8 | 99.7 | 150 | 101.6 | 99.2 |  |  |
| Cc1cn(-c2cc(NC(=O)c3ccc(C)c(Nc4nccc(-c5cccnc5)n4)c3)cc(C(F)(F)F)c2)cn1 [Nilotinib] | 101.2 | 88.1 | 92.6 | 102.7 | 104.0 | 100.3 | 1165 | 97.8 | 102.0 |  |  |
| COC(=O)c1ccc2c(c1)NC(=O)/C2=C(\Nc1ccc(N(C)C(=O)CN2CCN(C)CC2)cc1)c1ccccc1 [Nintedanib] | 104.4 | 91.3 | 99.8 | 102.7 | 104.6 | 102.7 | 13.1 | 104.2 | 101.4 |  |  |
| NC(=O)c1cccc2cn(-c3ccc([C@@H]4CCCNC4)cc3)nc12 [Niraparib] | 99.6 | 96.8 | 96.3 | 104.6 | 100.5 | 100.8 | 649 | 103.0 | 100.1 |  |  |
| O=C(c1cc(Cc2n[nH]c(=O)c3ccccc23)ccc1F)N1CCN(C(=O)C2CC2)CC1 [Olaparib] | 100.5 | 111.6 | 111.2 | 100.5 | 98.0 | 103.8 | 1570 | 103.8 | 100.5 |  |  |
| Nc1cccc2c1C(=O)N(C1CCC(=O)NC1=O)C2=O (centres unmarked) [Pomalidomide] | 103.5 | 104.9 | 96.5 | 104.5 | 97.7 | 100.5 | 10.9 | 104.1 | 97.9 |  |  |
| Cc1ccc(C(=O)Nc2ccc(CN3CCN(C)CC3)c(C(F)(F)F)c2)cc1C#Cc1cnc2cccnn12 [Ponatinib] | 106.1 |  |  | 106.1 | 102.3 | 101.9 | 34 | 106.1 | 102.0 | 104.7 | 104.7 |
| CNC(=O)c1cc(Oc2ccc(NC(=O)Nc3ccc(Cl)c(C(F)(F)F)c3)c(F)c2)ccn1 [Regorafenib] | 101.1 | 107.3 | 102.1 | 101.4 | 104.4 | 104.2 | 1400 | 101.6 | 99.3 |  |  |
| CN(C)C(=O)c1cc2cnc(Nc3ccc(N4CCNCC4)cn3)nc2n1C1CCCC1 [Ribociclib] |  | 84.0 |  | 104.1 |  | 89.8 | 732 | 103.0 |  |  |  |
| N#CC[C@H](C1CCCC1)n1cc(-c2ncnc3[nH]ccc23)cn1 [Ruxolitinib] | 97.7 | 93.9 | 94.4 | 102.4 | 99.7 | 100.1 | 11.4 | 100.5 | 99.7 |  |  |
| Cc1c(C(=O)Nc2ccc(N3C[C@@H](C)O[C@@H](C)C3)nc2)cccc1-c1ccc(OC(F)(F)F)cc1 [Sonidegib] | 101.9 | 109.3 | 100.0 | 99.4 | 101.1 | 101.3 | 890 | 101.5 | 98.1 |  |  |
| CNC(=O)c1cc(Oc2ccc(NC(=O)Nc3ccc(Cl)c(C(F)(F)F)c3)cc2)ccn1 [Sorafenib] | 104.1 | 112.0 | 104.9 | 101.0 | 103.5 | 101.7 | 3750 | 103.1 | 98.3 |  |  |
| CCN(CC)CCNC(=O)c1c(C)[nH]c(/C=C2\C(=O)Nc3ccc(F)cc32)c1C [Sunitinib] | 111.0 | 113.8 | 119.4 | 111.8 | 114.3 | 113.4 | 51.6 | 113.8 | 119.5 |  |  |
| O=C1CCC(N2C(=O)c3ccccc3C2=O)C(=O)N1 (centres unmarked) [Thalidomide] | 101.6 | 98.2 | 98.0 | 105.2 | 96.2 | 96.9 | 600 | 102.3 | 97.8 |  |  |
| COc1cc2nccc(Oc3ccc(NC(=O)Nc4cc(C)on4)c(Cl)c3)c2cc1OC [Tivozanib] | 102.7 | 94.0 | 95.0 | 104.6 | 102.4 | 101.6 | 80 | 101.5 | 103.1 |  |  |
